Measurements published in patent US10227331B2 (priority 2015, dated 2019).
Where two headings read alike, the source gives them in different places.

What was measured:
[1] = biological target: IMP-1 (Serratia marcescens, UniProt P52699); experiment: biochemical; assay type: biochemical
Procedure, shortened: (§1)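 IC50 values derive from 4-parameter fits of percent inhibition against inhibitor concentration on semi-log axes. Activity was monitored by fluorescence with the CCF2-FA substrate after a 2-hour, 25° C incubation of compound, enzyme and substrate.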

[2] = biological target: NDM-1 (Klebsiella pneumoniae, UniProt C7C422); experiment: biochemical; assay type: biochemical; conditions: CCF2-FA substrate, 2 hours at 25° C; read-out: NDM-1 IC50
Chain of NDM-1 (C7C422 whole entry, looked up, species assumed): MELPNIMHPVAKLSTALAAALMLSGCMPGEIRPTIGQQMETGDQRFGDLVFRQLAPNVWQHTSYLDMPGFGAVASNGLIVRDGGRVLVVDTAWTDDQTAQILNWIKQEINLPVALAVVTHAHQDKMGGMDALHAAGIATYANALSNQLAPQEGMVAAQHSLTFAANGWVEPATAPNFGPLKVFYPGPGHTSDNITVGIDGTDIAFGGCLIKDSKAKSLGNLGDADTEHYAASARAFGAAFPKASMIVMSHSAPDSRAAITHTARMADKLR
Procedure, shortened: as §1

[3] = biological target: VIM-1 (Pseudomonas aeruginosa (strain ATCC 15692 / DSM 22644 / CIP 104116 / JCM 14847 / LMG 12228 / 1C / PRS 101 / PAO1), UniProt A0A0F7KYQ8); experiment: biochemical; conditions: CCF2-FA substrate, 2 hours at 25° C
Procedure, shortened: as §1

[4] = tested on: Escherichia coli expressing NDM-1 (CLB30005, CLB30016); assay type: cell-based; conditions: with imipenem 1 μg/ml, 95% inhibition of bacterial growth; for Escherichia coli MITC95: NDM-1 (CLB30016)
Procedure, shortened: (§2)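 Restoration of imipenem susceptibility (1 μg/ml imipenem) was judged by absorbance after 22–24 h at 35° C. Test compound was added to bacteria suspended 1:100 in 1.1× CAMHB from overnight blood-agar cultures.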

[5] = tested on: Klebsiella pneumoniae expressing VIM-1 (IHMA599644); assay type: cell-based; conditions: with imipenem 1 μg/ml, 95% inhibition of bacterial growth; for Klebsiella pneumoniae MITC95: VIM-1 (IHMA599644)
Procedure, shortened: as §2

[6] = tested on: Serratia marcescens expressing IMP-1 (CL5741); assay type: cell-based; conditions: with imipenem 1 μg/ml, 95% inhibition of bacterial growth; for Serratia marcescens MITC95: IMP-1 (CL5741)
Procedure, shortened: as §2

[7] = tested on: P. aeruginosa expressing IMP-1, efflux+ (MB9798); assay type: cell-based, Pseudomonas aeruginosa; conditions: for P. aeruginosa expressing IMP-1, efflux+ (MB9798) MITC95: imipenem at 2 μg/mL, in the presence of a class A, C, D serine β-lactamase inhibitor closely related to relebactam; for Efflux ratio: ratio MITC95 PA_9798/MITC95 PA_9799
Excerpt: (§3) The strain background is Pseudomonas aeruginosa PAO1.

[8] = tested on: P. aeruginosa expressing IMP-1, efflux− (MB9799); experiment: Efflux: concentration of MBL inhibitor which restores susceptibility to imipenem; assay type: cell-based, Pseudomonas aeruginosa; conditions: imipenem at 2 μg/mL, in the presence of a class A, C, D serine β-lactamase inhibitor closely related to relebactam
Excerpt: as §3

[9] = CCF2-FA substrate, 2 hours at 25° C, read-out: IMP-1 IC50

Chain of IMP-1 (P52699 whole entry, looked up, species assumed): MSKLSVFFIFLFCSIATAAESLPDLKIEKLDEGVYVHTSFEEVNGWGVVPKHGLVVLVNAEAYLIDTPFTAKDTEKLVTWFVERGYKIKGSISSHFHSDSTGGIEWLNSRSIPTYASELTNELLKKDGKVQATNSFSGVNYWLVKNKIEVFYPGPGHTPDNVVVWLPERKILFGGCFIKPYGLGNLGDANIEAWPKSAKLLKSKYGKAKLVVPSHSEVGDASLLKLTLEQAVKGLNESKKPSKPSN

Row | Compound | IC50 [1, 9] [pM] | IC50 [2] [pM] | IC50 [3] [pM] | Escherichia coli expressing NDM-1 (CLB30016) MITC95 [4] [µM] | Klebsiella pneumoniae expressing VIM-1 (IHMA599644) MITC95 [5] [µM] | Serratia marcescens expressing IMP-1 (CL5741) MITC95 [6] [µM] | P. aeruginosa expressing IMP-1, efflux+ (MB9798) MITC95 [7] [µM] | Efflux ratio [7] | P. aeruginosa expressing IMP-1, efflux− (MB9799) MITC95 [8] [µM] | Escherichia coli MITC95 [4] [µM] | Klebsiella pneumoniae MITC95 [5] [µM] | Serratia marcescens MITC95 [6] [µM] | IC50 [1] [pM]
1 | COc1ccc(-c2ccc(S(=O)(=O)CCN)c(S(N)(=O)=O)c2-c2nnn[nH]2)c2[nH]c(C(F)(F)F)nc12.O=C(O)C(F)(F)F [Example 164, 2-((4-(4-methoxy-2-(trifluoromethyl)-1H-benzo[d]imidazol-7-yl)-2-sulfamoyl-3-(1H-tetrazol-5-yl)phenyl)sulfonyl)ethanaminium 2,2,2-trifluoroacetate] | 233 | 147 | 143 | 6.25 | 6.25 | 3.125 | 6.25 | 2.00 | 3.125 |  |  |  | 
2 | NCCS(=O)(=O)c1ccc(-c2cccc(C(=O)N[C@H]3CCNC3)c2N)c(-c2nn[nH]n2)c1S(N)(=O)=O [Example 376, (S)-2-Amino-4′-((2-aminoethyl)sulfonyl)-N-(pyrrolidin-3-yl)-3′-sulfamoyl-2′-(2H-tetrazol-5-yl)-[1,1′-biphenyl]-3-carboxamide] | 2580 | 2920 | 539 |  |  |  | 3.125 | 2.00 | 1.563 | 3.125 | 1.563 | 1.563 | 
3 | NCCS(=O)(=O)c1ccc(-c2cccc(NC(=O)CN)c2NC(=O)CN)c(-c2nn[nH]n2)c1S(N)(=O)=O [Example 338, N,N′-(4′-((2-Aminoethyl)sulfonyl)-3′-sulfamoyl-2′-(2H-tetrazol-5-yl)-[1,1′-biphenyl]-2,3-diyl)bis(2-aminoacetamide)] | 74900 | 20400 | 15100 |  |  |  | 25 | 4.00 | 6.25 | 1.563 | 6.25 | 3.125 | 
4 | NCCS(=O)(=O)c1ccc(-c2cccc3oc(N)nc23)c(-c2nn[nH]n2)c1S(N)(=O)=O [Example 76, 3-(2-aminobenzo[d]oxazol-4-yl)-6-(2-aminoethylsulfonyl)-2-(2H-tetrazol-5-yl)benzenesulfonamide] |  | 148 | 240 | 0.7813 | 1.563 | 0.7813 | 0.7813 | 1.00 | 0.7813 |  |  |  | 258
5 | NCCS(=O)(=O)c1ccc(-c2cccc3sc(NC(N)=O)nc23)c(-c2nn[nH]n2)c1S(N)(=O)=O [Example 85, 6-(2-aminoethylsulfonyl)-2-(2H-tetrazol-5-yl)-3-(2-ureidobenzo[d]thiazol-4-yl)benzenesulfonamide] | 144 | 51.1 | 85.8 | 0.3906 | 1.563 | 0.7813 | 1.563 | 2.00 | 0.7813 |  |  |  | 
6 | Nc1n[nH]c2c(-c3ccc(S(=O)(=O)C4CNC4)c(S(N)(=O)=O)c3-c3nn[nH]n3)cccc12 [Example 21, 3-(3-amino-1H-indazol-7-yl)-6-(azetidin-3-ylsulfonyl)-2-(2H-tetrazol-5-yl)benzenesulfonamide] | 639 | 150 | 450 | 1.563 | 3.125 | 3.125 | 1.563 | 1.00 | 1.563 |  |  |  | 
7 | NS(=O)(=O)c1c(S(=O)(=O)[C@@H]2CCNC2)ccc(-c2cccc3cn[nH]c23)c1-c1nn[nH]n1 [Example 185, 3-(1H-indazol-7-yl)-6-((R)-pyrrolidin-3-ylsulfonyl)-2-(2H-tetrazol-5-yl)benzenesulfonamide] | 466 | 657 | 550 | 0.7813 | 3.125 | 1.563 | 1.563 | 2.00 | 0.7813 |  |  |  | 
8 | NC(=O)c1nc2c(-c3ccc(S(=O)(=O)C4CNC4)c(S(N)(=O)=O)c3-c3nn[nH]n3)cccc2[nH]1 [Example 254, 4-(4-(Azetidin-3-ylsulfonyl)-3-sulfamoyl-2-(2H-tetrazol-5-yl)phenyl)-1H-benzo[d]imidazole-2-carboxamide] | 748 | 82.5 | 218 |  |  |  | 3.125 | 2.00 | 1.563 | 1.563 | 6.25 | 3.125 | 
9 | NS(=O)(=O)c1c(SC2CNC2)ccc(-c2cnc3ccccn23)c1-c1nn[nH]n1 [Example 7, 6-(azetidin-3-ylthio)-3-(imidazo[1,2-a]pyridin-3-yl)-2-(2H-tetrazol-5-yl)benzenesulfonamide] | 50400 | 7550 | 25600 | 0.3906 | 6.25 | 3.125 | 25 | 8.00 | 3.125 |  |  |  | 
10 | Nc1nccc(-c2ccc(S(=O)(=O)C3CNC3)c(S(N)(=O)=O)c2-c2nn[nH]n2)c1N [Example 224, 6-(azetidin-3-ylsulfonyl)-3-(2,3-diaminopyridin-4-yl)-2-(2H-tetrazol-5-yl)benzenesulfonamide] | 2580 | 618 | 1290 | 0.7813 | 3.125 | 3.125 | 3.125 | 2.00 | 1.563 |  |  |  | 
11 | Nc1nc2c(-c3ccc(S(=O)(=O)CCN4CCOCC4)c(S(N)(=O)=O)c3-c3nn[nH]n3)cccc2s1 [Example 258, 3-(2-Aminobenzo[d]thiazol-4-yl)-6-((2-morpholinoethyl)sulfonyl)-2-(2H-tetrazol-5-yl)benzenesulfonamide] |  | 228 | 454 |  |  |  | 12.5 | 2.00 | 6.25 | 25 | 25 | 12.5 | 469
12 | Cc1ccc(-c2ccc(S(C)(=O)=O)c(S(N)(=O)=O)c2-c2nn[nH]n2)c2nc(N)sc12 [Example 193, 3-(2-amino-7-methylbenzo[d]thiazol-4-yl)-6-(methylsulfonyl)-2-(2H-tetrazol-5-yl)benzenesulfonamide] | 94.1 | 136 | 106 | 3.125 | 6.25 | 1.563 | 6.25 | 4.00 | 1.563 |  |  |  | 
13 | NS(=O)(=O)c1c(S(=O)(=O)C2CNC2)ccc(-c2cnc3cc[nH]c3c2)c1-c1nn[nH]n1 [Example 16, 6-(Azetidin-3-ylsulfonyl)-3-(1H-pyrrolo[3,2-b]pyridin-6-yl)-2-(2H-tetrazol-5-yl)benzenesulfonamide] | 2370 | 490 | 653 | 0.3906 | 3.125 | 0.7813 | 6.25 | 4.00 | 1.563 |  |  |  | 
